# Legend:
# Assay in all cases: Test C postemergence
# Assay type in all cases: in vivo
# Details in all cases: scale 0 to 100, 0 is no effect, 100 is complete control
# [1] = test system: Italian ryegrass (Lolium multiflorum)
# Description: (§1) Seeds of plant species selected from blackgrass (Alopecurus myosuroides), Italian ryegrass (Lolium multiflorum), winter wheat (Triticum aestivum), galium (catchweed bedstraw, Galium aparine), corn (Zea mays), large (Lg) crabgrass (Digitaria sanguinalis), giant foxtail (Setaria faberii), johnsongrass (Sorghum halepense), lambsquarters (Chenopodium album), morningglory (Ipomoea coccinea), yellow nutsedge (Cyperus esculentus), pigweed (Amaranthus retroflexus), ragweed (common ragweed, Ambrosia elatior), soybean (Glycine max), barnyardgrass (Echinochloa crus-galli), oilseed rape (Brassica napus), waterhemp (common waterhemp, Amaranthus rudis), and velvetleaf (Abutilon theophrasti) were planted into a blend of loam soil and sand and treated preemergence with test chemicals formulated in a non-phytotoxic solvent mixture which included a surfactant. At the same time, plants selected from these crop and weed species and also chickweed (common chickweed, Stellaria media), kochia (Kochia scoparia), and wild oat (Avena fatua), were planted in pots containing Sunshine Redi-Earth® planting medium comprising spaghnum peat moss, vermiculite, starter nutrients and dolomitic limestone and treated with postemergence applications of test chemicals formulated in the same manner. Plants ranged in height from 2 to 18 cm (1- to 4-leaf stage) for postemergence treatments. Treated plants and controls were maintained in a greenhouse for 13 to 15 days, after which time all species were compared to controls and visually evaluated. Plant response ratings, summarized in Table C, are based on a scale of 0 to 100 where 0 is no effect and 100 is complete control. A dash (-) response means no test result.
# [2] = test system: blackgrass (Alopecurus myosuroides)
# Description: as §1
# [3] = test system: chickweed (common chickweed, Stellaria media)
# Description: as §1
# corn (Zea mays) = test system: corn (Zea mays)
# Description: as §1
# [4] = test system: galium (catchweed bedstraw, Galium aparine)
# Description: as §1
# [5] = test system: giant foxtail (Setaria faberii)
# Description: as §1
# [6] = test system: johnsongrass (Sorghum halepense)
# Description: as §1
# kochia (Kochia scoparia) = test system: kochia (Kochia scoparia)
# Description: as §1
# [7] = test system: lambsquarters (Chenopodium album)
# Description: as §1
# [8] = test system: large (Lg) crabgrass (Digitaria sanguinalis)
# Description: as §1
# [9] = test system: morningglory (Ipomoea coccinea)
# Description: as §1
# [10] = test system: oilseed rape (Brassica napus)
# Description: as §1
# [11] = test system: pigweed (Amaranthus retroflexus)
# Description: as §1
# soybean (Glycine max) = test system: soybean (Glycine max)
# Description: as §1
# [12] = test system: velvetleaf (Abutilon theophrasti)
# Description: as §1
# [13] = test system: waterhemp (common waterhemp, Amaranthus rudis)
# Description: as §1
# wild oat (Avena fatua) = test system: wild oat (Avena fatua)
# Description: as §1
# [14] = test system: winter wheat (Triticum aestivum)
# Description: as §1
# [15] = test system: yellow nutsedge (Cyperus esculentus)
# Description: as §1
smiles,measurement,setting,value
O=c1cccc(Oc2ncc(Cl)cn2)n1-c1ncc(Cl)cn1 [Compound 6],"Plant response rating, Ryegrass, Italian",[1]; 16 g ai/ha,0
same,"Plant response rating, Ryegrass, Italian",[1]; 31 g ai/ha,0
same,"Plant response rating, Ryegrass, Italian",[1]; 62 g ai/ha,0
same,"Plant response rating, Ryegrass, Italian",[1]; 125 g ai/ha,0
same,"Plant response rating, Blackgrass",[2]; 16 g ai/ha,0
same,"Plant response rating, Blackgrass",[2]; 31 g ai/ha,0
same,"Plant response rating, Blackgrass",[2]; 62 g ai/ha,5
same,"Plant response rating, Blackgrass",[2]; 125 g ai/ha,5
same,"Plant response rating, Chickweed",[3]; 16 g ai/ha,50
same,"Plant response rating, Chickweed",[3]; 31 g ai/ha,55
same,"Plant response rating, Chickweed",[3]; 62 g ai/ha,60
same,"Plant response rating, Chickweed",[3]; 125 g ai/ha,55
same,"Plant response rating, Corn",corn (Zea mays); 16 g ai/ha,5
same,"Plant response rating, Corn",corn (Zea mays); 31 g ai/ha,10
same,"Plant response rating, Corn",corn (Zea mays); 62 g ai/ha,10
same,"Plant response rating, Corn",corn (Zea mays); 125 g ai/ha,20
same,"Plant response rating, Galium",[4]; 16 g ai/ha,50
same,"Plant response rating, Galium",[4]; 31 g ai/ha,60
same,"Plant response rating, Galium",[4]; 62 g ai/ha,60
same,"Plant response rating, Galium",[4]; 125 g ai/ha,80
same,"Plant response rating, Foxtail, Giant",[5]; 16 g ai/ha,5
same,"Plant response rating, Foxtail, Giant",[5]; 31 g ai/ha,5
same,"Plant response rating, Foxtail, Giant",[5]; 62 g ai/ha,5
same,"Plant response rating, Foxtail, Giant",[5]; 125 g ai/ha,10
same,"Plant response rating, Johnsongrass",[6]; 16 g ai/ha,0
same,"Plant response rating, Johnsongrass",[6]; 31 g ai/ha,5
same,"Plant response rating, Johnsongrass",[6]; 62 g ai/ha,5
same,"Plant response rating, Johnsongrass",[6]; 125 g ai/ha,5
same,"Plant response rating, Kochia",kochia (Kochia scoparia); 16 g ai/ha,50
same,"Plant response rating, Kochia",kochia (Kochia scoparia); 31 g ai/ha,60
same,"Plant response rating, Kochia",kochia (Kochia scoparia); 62 g ai/ha,80
same,"Plant response rating, Kochia",kochia (Kochia scoparia); 125 g ai/ha,85
same,"Plant response rating, Lambsquarters",[7]; 16 g ai/ha,20
same,"Plant response rating, Lambsquarters",[7]; 31 g ai/ha,35
same,"Plant response rating, Lambsquarters",[7]; 62 g ai/ha,65
same,"Plant response rating, Lambsquarters",[7]; 125 g ai/ha,70
same,"Plant response rating, Crabgrass, Large",[8]; 16 g ai/ha,5
same,"Plant response rating, Crabgrass, Large",[8]; 31 g ai/ha,15
same,"Plant response rating, Crabgrass, Large",[8]; 62 g ai/ha,5
same,"Plant response rating, Crabgrass, Large",[8]; 125 g ai/ha,20
same,"Plant response rating, Morningglory",[9]; 16 g ai/ha,50
same,"Plant response rating, Morningglory",[9]; 31 g ai/ha,75
same,"Plant response rating, Morningglory",[9]; 62 g ai/ha,65
same,"Plant response rating, Morningglory",[9]; 125 g ai/ha,80
same,"Plant response rating, Oilseed Rape",[10]; 16 g ai/ha,5
same,"Plant response rating, Oilseed Rape",[10]; 31 g ai/ha,15
same,"Plant response rating, Oilseed Rape",[10]; 62 g ai/ha,20
same,"Plant response rating, Oilseed Rape",[10]; 125 g ai/ha,10
same,"Plant response rating, Pigweed",[11]; 16 g ai/ha,70
same,"Plant response rating, Pigweed",[11]; 31 g ai/ha,70
same,"Plant response rating, Pigweed",[11]; 62 g ai/ha,75
same,"Plant response rating, Pigweed",[11]; 125 g ai/ha,85
same,"Plant response rating, Soybean",soybean (Glycine max); 16 g ai/ha,40
same,"Plant response rating, Soybean",soybean (Glycine max); 31 g ai/ha,45
same,"Plant response rating, Soybean",soybean (Glycine max); 62 g ai/ha,60
same,"Plant response rating, Soybean",soybean (Glycine max); 125 g ai/ha,70
same,"Plant response rating, Velvetleaf",[12]; 16 g ai/ha,50
same,"Plant response rating, Velvetleaf",[12]; 31 g ai/ha,65
same,"Plant response rating, Velvetleaf",[12]; 62 g ai/ha,75
same,"Plant response rating, Velvetleaf",[12]; 125 g ai/ha,75
same,"Plant response rating, Waterhemp",[13]; 16 g ai/ha,60
same,"Plant response rating, Waterhemp",[13]; 31 g ai/ha,75
same,"Plant response rating, Waterhemp",[13]; 62 g ai/ha,70
same,"Plant response rating, Waterhemp",[13]; 125 g ai/ha,70
same,"Plant response rating, Oat, Wild",wild oat (Avena fatua); 16 g ai/ha,0
same,"Plant response rating, Oat, Wild",wild oat (Avena fatua); 31 g ai/ha,0
same,"Plant response rating, Oat, Wild",wild oat (Avena fatua); 62 g ai/ha,0
same,"Plant response rating, Oat, Wild",wild oat (Avena fatua); 125 g ai/ha,0
same,"Plant response rating, Wheat",[14]; 16 g ai/ha,0
same,"Plant response rating, Wheat",[14]; 31 g ai/ha,0
same,"Plant response rating, Wheat",[14]; 62 g ai/ha,0
same,"Plant response rating, Wheat",[14]; 125 g ai/ha,0
same,"Plant response rating, Nutsedge, Yellow",[15]; 16 g ai/ha,0
same,"Plant response rating, Nutsedge, Yellow",[15]; 31 g ai/ha,5
same,"Plant response rating, Nutsedge, Yellow",[15]; 62 g ai/ha,5
same,"Plant response rating, Nutsedge, Yellow",[15]; 125 g ai/ha,5
O=c1cccc(Oc2ncc(Cl)cn2)n1-c1ccc(C(F)(F)F)cn1 [Compound 7],"Plant response rating, Ryegrass, Italian",[1]; 16 g ai/ha,0
same,"Plant response rating, Ryegrass, Italian",[1]; 31 g ai/ha,5
same,"Plant response rating, Ryegrass, Italian",[1]; 62 g ai/ha,5
same,"Plant response rating, Ryegrass, Italian",[1]; 125 g ai/ha,10
same,"Plant response rating, Blackgrass",[2]; 16 g ai/ha,5
same,"Plant response rating, Blackgrass",[2]; 31 g ai/ha,5
same,"Plant response rating, Blackgrass",[2]; 62 g ai/ha,10
same,"Plant response rating, Blackgrass",[2]; 125 g ai/ha,20
same,"Plant response rating, Chickweed",[3]; 16 g ai/ha,0
same,"Plant response rating, Chickweed",[3]; 31 g ai/ha,20
same,"Plant response rating, Chickweed",[3]; 62 g ai/ha,35
same,"Plant response rating, Chickweed",[3]; 125 g ai/ha,55
same,"Plant response rating, Corn",corn (Zea mays); 16 g ai/ha,10
same,"Plant response rating, Corn",corn (Zea mays); 31 g ai/ha,10
same,"Plant response rating, Corn",corn (Zea mays); 62 g ai/ha,20
same,"Plant response rating, Corn",corn (Zea mays); 125 g ai/ha,15
same,"Plant response rating, Galium",[4]; 16 g ai/ha,45
same,"Plant response rating, Galium",[4]; 31 g ai/ha,50
same,"Plant response rating, Galium",[4]; 62 g ai/ha,60
same,"Plant response rating, Galium",[4]; 125 g ai/ha,75
same,"Plant response rating, Foxtail, Giant",[5]; 16 g ai/ha,10
same,"Plant response rating, Foxtail, Giant",[5]; 31 g ai/ha,10
same,"Plant response rating, Foxtail, Giant",[5]; 62 g ai/ha,15
same,"Plant response rating, Foxtail, Giant",[5]; 125 g ai/ha,20
same,"Plant response rating, Johnsongrass",[6]; 16 g ai/ha,5
same,"Plant response rating, Johnsongrass",[6]; 31 g ai/ha,5
same,"Plant response rating, Johnsongrass",[6]; 62 g ai/ha,10
same,"Plant response rating, Johnsongrass",[6]; 125 g ai/ha,10
same,"Plant response rating, Kochia",kochia (Kochia scoparia); 16 g ai/ha,10
same,"Plant response rating, Kochia",kochia (Kochia scoparia); 31 g ai/ha,50
same,"Plant response rating, Kochia",kochia (Kochia scoparia); 62 g ai/ha,70
same,"Plant response rating, Kochia",kochia (Kochia scoparia); 125 g ai/ha,85
same,"Plant response rating, Lambsquarters",[7]; 16 g ai/ha,25
same,"Plant response rating, Lambsquarters",[7]; 31 g ai/ha,65
same,"Plant response rating, Lambsquarters",[7]; 62 g ai/ha,65
same,"Plant response rating, Lambsquarters",[7]; 125 g ai/ha,75
same,"Plant response rating, Crabgrass, Large",[8]; 16 g ai/ha,10
same,"Plant response rating, Crabgrass, Large",[8]; 31 g ai/ha,10
same,"Plant response rating, Crabgrass, Large",[8]; 62 g ai/ha,15
same,"Plant response rating, Crabgrass, Large",[8]; 125 g ai/ha,15
same,"Plant response rating, Morningglory",[9]; 16 g ai/ha,20
same,"Plant response rating, Morningglory",[9]; 31 g ai/ha,35
same,"Plant response rating, Morningglory",[9]; 62 g ai/ha,40
same,"Plant response rating, Morningglory",[9]; 125 g ai/ha,45
same,"Plant response rating, Oilseed Rape",[10]; 16 g ai/ha,20
same,"Plant response rating, Oilseed Rape",[10]; 31 g ai/ha,35
same,"Plant response rating, Oilseed Rape",[10]; 62 g ai/ha,40
same,"Plant response rating, Oilseed Rape",[10]; 125 g ai/ha,35
same,"Plant response rating, Pigweed",[11]; 16 g ai/ha,70
same,"Plant response rating, Pigweed",[11]; 31 g ai/ha,65
same,"Plant response rating, Pigweed",[11]; 62 g ai/ha,85
same,"Plant response rating, Pigweed",[11]; 125 g ai/ha,80
same,"Plant response rating, Soybean",soybean (Glycine max); 16 g ai/ha,50
same,"Plant response rating, Soybean",soybean (Glycine max); 31 g ai/ha,40
same,"Plant response rating, Soybean",soybean (Glycine max); 62 g ai/ha,50
same,"Plant response rating, Soybean",soybean (Glycine max); 125 g ai/ha,55
same,"Plant response rating, Velvetleaf",[12]; 16 g ai/ha,25
same,"Plant response rating, Velvetleaf",[12]; 31 g ai/ha,35
same,"Plant response rating, Velvetleaf",[12]; 62 g ai/ha,40
same,"Plant response rating, Velvetleaf",[12]; 125 g ai/ha,65
same,"Plant response rating, Waterhemp",[13]; 16 g ai/ha,60
same,"Plant response rating, Waterhemp",[13]; 31 g ai/ha,70
same,"Plant response rating, Waterhemp",[13]; 62 g ai/ha,85
same,"Plant response rating, Waterhemp",[13]; 125 g ai/ha,85
same,"Plant response rating, Oat, Wild",wild oat (Avena fatua); 16 g ai/ha,0
same,"Plant response rating, Oat, Wild",wild oat (Avena fatua); 31 g ai/ha,0
same,"Plant response rating, Oat, Wild",wild oat (Avena fatua); 62 g ai/ha,5
same,"Plant response rating, Oat, Wild",wild oat (Avena fatua); 125 g ai/ha,5
same,"Plant response rating, Wheat",[14]; 16 g ai/ha,0
same,"Plant response rating, Wheat",[14]; 31 g ai/ha,0
same,"Plant response rating, Wheat",[14]; 62 g ai/ha,0
same,"Plant response rating, Wheat",[14]; 125 g ai/ha,0
same,"Plant response rating, Nutsedge, Yellow",[15]; 16 g ai/ha,0
same,"Plant response rating, Nutsedge, Yellow",[15]; 31 g ai/ha,5
same,"Plant response rating, Nutsedge, Yellow",[15]; 62 g ai/ha,5
same,"Plant response rating, Nutsedge, Yellow",[15]; 125 g ai/ha,10

# From patent US9963442B2, “Pyridones as herbicides” (E I DU PONT DE NEMOURS AND COMPANY, priority 2014, dated 2018)
